# In patent publication US10870638B2, “Pyridazinone compound or its salt, and herbicide containing it” (ISHIHARA SANGYO KAISHA, LTD., priority 2016, dated 2020):
# Experiments:
# Type in all cases: in vivo
# Settings in all cases: 14th day after application
# [1] = system: barnyardgrass (Echinochloa crus-qalli L.); assay: Test Example 1: foliar treatment, growth inhibition rate on 14th day
# Outline: (§1)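 Visual 0–100% inhibition scoring (100 = complete kill) at 14 days after foliar treatment of soil-grown seedlings at species-specific leaf stages, with the compound sprayed as a wettable powder or emulsifiable concentrate dilution.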
# [2] = system: redroot pigweed (Amaranthus retroflexus L.); assay: as above
# Outline: as §1
# rice (Oryza sativa L.) [3] = assay: as above
# Outline: (§2)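 Growth inhibition rates (%) come from visual observation on the 14th day following a single foliar application. Soybean was sprayed at the primary leaf stage, rice at 0.2–2.7 leaves, wild oat at 0.4–1.2, green foxtail at 0.5–3.2.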
# [4] = system: crabgrass (Digitaria sanquinalis L.); assay: as above
# Outline: as §1
# [5] = system: soybean (Glycine max Merr.); assay: as above
# Outline: as §2
# [6] = system: italian ryegrass (Lolium multiflorum Lam.); assay: as above
# Outline: as §1
# [7] = system: wheat (Triticum aestivum L.); assay: as above
# Outline: as §1
# [8] = system: wild oat (Avena fatua L.); assay: as above
# Outline: as §2
# [9] = system: green foxtail (Setaria viridis L.); assay: as above
# Outline: as §2
# corn (Zea mays L.) [10] = assay: as above
# Outline: as §1
# [11] = system: velvetleaf (Abutilon theophrasti MEDIC.); assay: Test Example 2: soil application on the day after sowing, growth inhibition rate on 14th day
# Outline: (§3)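 Pre-emergence soil spray, day after sowing; WP or EC formulations diluted to 1,000 L/ha water at set a.i. rates. Visual growth inhibition %, 0 = untreated, 100 = complete kill, read at day 14.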
# [12] = system: barnyardgrass (Echinochloa crus-qalli L.); assay: as above
# Outline: as §3
# [13] = system: redroot pigweed (Amaranthus retroflexus L.); assay: as above
# Outline: as §3
# rice (Oryza sativa L.) [14] = assay: as above
# Outline: as §3
# [15] = system: soybean (Glycine max Merr.); assay: as above
# Outline: as §3
# [16] = system: crabgrass (Digitaris sanquinalis L.); assay: as above
# Outline: as §3
# [17] = system: wheat (Triticum aestivum L.); assay: as above
# Outline: as §3
# [18] = system: green foxtail (Setaria viridis L.); assay: as above
# Outline: as §3
# corn (Zea mays L.) [19] = assay: as above
# Outline: as §3
# [20] = system: prickly sida (Sida spinosa L.); assay: as above
# Outline: as §3
# [21] = active ingredient amount 31 g/ha
# [22] = active ingredient amount 500 g/ha
# [23] = active ingredient amount 31 g/ha, visual, 0 = non-treated, 100 = complete kill
SMILES,"Growth inhibition rate (%) Barnyardgrass [1, 21]","Growth inhibition rate (%) Redroot pigweed [2, 21]",Growth inhibition rate (%) Rice (rice (Oryza sativa L.) [3]; [21]),"Growth inhibition rate (%) Crabgrass [4, 21]","Growth inhibition rate (%) Soybean [5, 21]","Growth inhibition rate (%) Italian ryegrass [6, 21]","Growth inhibition rate (%) Wheat [7, 21]","Growth inhibition rate (%) Wild oat [8, 21]","Growth inhibition rate (%) Green foxtail [9, 21]",Growth inhibition rate (%) Corn (corn (Zea mays L.) [10]; [21]),"Growth inhibition rate (%) Velvetleaf [11, 21]","Growth inhibition rate (%) Barnyardgrass [12, 21]","Growth inhibition rate (%) Redroot pigweed [13, 21]",Growth inhibition rate (%) Rice (rice (Oryza sativa L.) [14]; [21]),"Growth inhibition rate (%) Soybean [15, 21]","Growth inhibition rate (%) Crabgrass [16, 21]","Growth inhibition rate (%) Wheat [17, 21]","Growth inhibition rate (%) Green foxtail [18, 21]",Growth inhibition rate (%) Corn (corn (Zea mays L.) [19]; [21]),"Growth inhibition rate (%) Prickly sida [20, 21]",other results
Cc1ccc(Oc2cnc(C(F)(F)F)cn2)cc1-c1c(O)c(C)nn(C)c1=O [Compound 2-194],85%,0%,0%,90%,10%,35%,0%,10%,90%,60%,0%,95%,0%,30%,0%,83%,0%,99%,40%,0%,
CC(=O)Oc1c(C)nn(C)c(=O)c1-c1cc(Oc2ccc3ccccc3n2)ccc1C [Compound 2-142],,,,,,,,,,,,,,,,,,,,,"Growth inhibition rate (%) Barnyardgrass [1, 22]: 100%; Growth inhibition rate (%) Redroot pigweed [2, 22]: 0%; Growth inhibition rate (%) Rice (rice (Oryza sativa L.) [3]; [22]): 80%; Growth inhibition rate (%) Crabgrass [4, 22]: 83%; Growth inhibition rate (%) Soybean [5, 22]: 25%; Growth inhibition rate (%) Italian ryegrass [6, 22]: 0%; Growth inhibition rate (%) Wheat [7, 22]: 50%; Growth inhibition rate (%) Wild oat [8, 22]: 50%; Growth inhibition rate (%) Green foxtail [9, 22]: 90%; Growth inhibition rate (%) Corn (corn (Zea mays L.) [10]; [22]): 20%; Growth inhibition rate (%) Velvetleaf [11, 22]: 0%; Growth inhibition rate (%) Barnyardgrass [12, 22]: 100%; Growth inhibition rate (%) Redroot pigweed [13, 22]: 0%; Growth inhibition rate (%) Rice (rice (Oryza sativa L.) [14]; [22]): 90%; Growth inhibition rate (%) Soybean [15, 22]: 0%; Growth inhibition rate (%) Crabgrass [16, 22]: 98%; Growth inhibition rate (%) Wheat [17, 22]: 0%; Growth inhibition rate (%) Green foxtail [18, 22]: 93%; Growth inhibition rate (%) Corn (corn (Zea mays L.) [19]; [22]): 0%; Growth inhibition rate (%) Prickly sida [20, 22]: 0%"
CCc1ccc(Sc2ncc(C(F)(F)F)cc2Cl)cc1-c1c(O)c(C)nn(C)c1=O [1-4],99%,10%,20%,95%,35%,95%,10%,99%,100%,93%,0%,100%,0%,40%,0%,99%,0%,98%,0%,0%,
Cc1ccc(Oc2cnc3ccccc3c2)cc1-c1c(O)c(C)nn(C)c1=O [Compound 2-112],,,,,,,,,,,,,,,,,,,,,"Growth inhibition rate (%) Barnyardgrass [1, 22]: 99%; Growth inhibition rate (%) Redroot pigweed [2, 22]: 20%; Growth inhibition rate (%) Rice (rice (Oryza sativa L.) [3]; [22]): 93%; Growth inhibition rate (%) Crabgrass [4, 22]: 98%; Growth inhibition rate (%) Soybean [5, 22]: 0%; Growth inhibition rate (%) Italian ryegrass [6, 22]: 90%; Growth inhibition rate (%) Wheat [7, 22]: 80%; Growth inhibition rate (%) Wild oat [8, 22]: 90%; Growth inhibition rate (%) Green foxtail [9, 22]: 100%; Growth inhibition rate (%) Corn (corn (Zea mays L.) [10]; [22]): 93%; Growth inhibition rate (%) Velvetleaf [11, 22]: 0%; Growth inhibition rate (%) Barnyardgrass [12, 22]: 100%; Growth inhibition rate (%) Redroot pigweed [13, 22]: 0%; Growth inhibition rate (%) Rice (rice (Oryza sativa L.) [14]; [22]): 70%; Growth inhibition rate (%) Soybean [15, 22]: 0%; Growth inhibition rate (%) Crabgrass [16, 22]: 100%; Growth inhibition rate (%) Wheat [17, 22]: 20%; Growth inhibition rate (%) Green foxtail [18, 22]: 100%; Growth inhibition rate (%) Corn (corn (Zea mays L.) [19]; [22]): 0%; Growth inhibition rate (%) Prickly sida [20, 22]: 0%"
C#CCOC(=O)Oc1c(C)nn(C)c(=O)c1-c1cc(Oc2cnc3cc(Cl)ccc3n2)ccc1C [Compound 3-64],,,,,,,,,,,0%,98%,0%,0%,0%,50%,0%,93%,0%,0%,"Growth inhibition rate (%) Barnyardgrass [1, 23]: 98%; Growth inhibition rate (%) Redroot pigweed [2, 23]: 0%; Growth inhibition rate (%) Rice (rice (Oryza sativa L.) [3]; [23]): 0%; Growth inhibition rate (%) Crabgrass [4, 23]: 90%; Growth inhibition rate (%) Soybean [5, 23]: 0%; Growth inhibition rate (%) Italian ryegrass [6, 23]: 85%; Growth inhibition rate (%) Wheat [7, 23]: 60%; Growth inhibition rate (%) Wild oat [8, 23]: 83%; Growth inhibition rate (%) Green foxtail [9, 23]: 100%; Growth inhibition rate (%) Corn (corn (Zea mays L.) [10]; [23]): 50%"
CCc1ccc(Oc2nc3ccccc3o2)cc1-c1c(O)c(C)nn(C)c1=O [Compound 2-166],100%,20%,88%,88%,30%,99%,10%,40%,100%,80%,0%,99%,0%,70%,0%,95%,0%,100%,0%,0%,
Cc1cc(C)c(-c2c(O)c(C)nn(C)c2=O)cc1Oc1ncc(C(F)(F)F)cc1Cl [1-14],98%,0%,80%,93%,0%,85%,0%,95%,98%,70%,0%,99%,0%,0%,0%,83%,0%,93%,0%,0%,
Cc1ccc(Oc2nc3ccc(Br)cc3o2)cc1-c1c(O)cnn(C)c1=O [Compound 2-181],100%,0%,10%,99%,0%,93%,35%,83%,100%,70%,0%,90%,0%,20%,0%,0%,0%,40%,0%,0%,
Cc1ccc(Oc2cnc3cc(Cl)ccc3n2)cc1-c1c(OC(=O)C(F)(F)F)c(C)nn(C)c1=O [Compound 3-52],,,,,,,,,,,0%,99%,0%,0%,0%,95%,0%,100%,0%,0%,"Growth inhibition rate (%) Barnyardgrass [1, 23]: 100%; Growth inhibition rate (%) Redroot pigweed [2, 23]: 0%; Growth inhibition rate (%) Rice (rice (Oryza sativa L.) [3]; [23]): 70%; Growth inhibition rate (%) Crabgrass [4, 23]: 95%; Growth inhibition rate (%) Soybean [5, 23]: 20%; Growth inhibition rate (%) Italian ryegrass [6, 23]: 90%; Growth inhibition rate (%) Wheat [7, 23]: 10%; Growth inhibition rate (%) Wild oat [8, 23]: 20%; Growth inhibition rate (%) Green foxtail [9, 23]: 100%; Growth inhibition rate (%) Corn (corn (Zea mays L.) [10]; [23]): 35%"
